{"source": "patent US4855284A", "about": "“Calcium and magnesium complexes of phytohemagglutinin-polyheteroglycans, their preparation and pharmaceutical formulations” (Intex Pharmazeutische Produkte AG, priority 1985, dated 1989)", "key": {"[1]": {"tested_on": "ulcers and mucosal edema in the stomach", "experiment": "alcohol ulcer test (Robert), cytoprotective action", "format": "in vivo, Wistar rats", "conditions": "oral 500 mg/kg, 10 animals", "protocol": "The cytoprotective action was tested by the alcohol ulcer test of A. J. E. Robert and coworkers, Am. J. Physiol. […] Liver Physiol. […] Usually, Wistar rats in groups with 10 animals in each are kept without food for 1 day and then treated once through a stomach tube with 1 to 2 ml of anhydrous ethanol which contains 0.5% hydrochloric acid.\nAfter the death of the animals, the length of the resulting ulcers and the size of the resulting mucosal edema in the stomach are measured and compared with control animals not treated with the product. A basic aluminum complex of sucrose polysulfate (sucralfate, see below) was used for comparison."}, "[2]": {"tested_on": "edema induced by carrageen in the rat paw", "experiment": "carrageen rat paw test (Winter), antiinflammatory action", "format": "in vivo, rat (female, CFY strain)", "conditions": "10 mg/kg oral"}}}
{"compound": "Sucralfate", "values": [{"measurement": "Inhibition in %, Edema", "setting": "[1]", "result": 79, "unit": "%"}, {"measurement": "Inhibition in %, Ulcer", "setting": "[1]", "result": 56, "unit": "%"}]}
{"compound": "COc1ccc2c(c1)c(CC(=O)O)c(C)n2C(=O)c1ccc(Cl)cc1", "note": "[Indomethacin]", "values": [{"measurement": "Inhibition in % (of swelling)", "setting": "[2]", "result": 46, "unit": "%"}]}
